In experiment [1] the target is T1, Inhibitor of nuclear factor kappa-B kinase subunit beta (Homo sapiens) (UniProt O14920).
T1 sequence (whole entry): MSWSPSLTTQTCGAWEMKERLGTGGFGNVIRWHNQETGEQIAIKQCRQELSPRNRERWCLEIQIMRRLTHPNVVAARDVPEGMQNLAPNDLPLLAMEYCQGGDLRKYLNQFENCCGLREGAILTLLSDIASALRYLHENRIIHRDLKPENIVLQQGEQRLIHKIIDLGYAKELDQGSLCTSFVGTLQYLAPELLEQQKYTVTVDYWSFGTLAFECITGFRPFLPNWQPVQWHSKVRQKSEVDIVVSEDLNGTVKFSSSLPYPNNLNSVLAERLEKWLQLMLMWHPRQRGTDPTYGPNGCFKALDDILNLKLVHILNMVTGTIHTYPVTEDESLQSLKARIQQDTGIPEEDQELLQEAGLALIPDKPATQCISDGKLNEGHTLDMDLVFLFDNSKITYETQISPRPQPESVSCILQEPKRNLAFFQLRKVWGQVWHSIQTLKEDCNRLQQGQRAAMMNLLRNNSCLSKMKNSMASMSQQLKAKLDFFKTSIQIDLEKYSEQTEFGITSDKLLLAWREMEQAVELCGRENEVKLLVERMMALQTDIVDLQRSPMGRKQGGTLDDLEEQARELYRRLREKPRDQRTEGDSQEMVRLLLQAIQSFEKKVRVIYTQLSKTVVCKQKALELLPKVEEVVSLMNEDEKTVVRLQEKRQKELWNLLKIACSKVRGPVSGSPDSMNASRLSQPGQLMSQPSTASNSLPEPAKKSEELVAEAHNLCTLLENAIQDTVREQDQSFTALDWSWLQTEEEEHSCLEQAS
Conditions: at 1 µM.

For experiment [2], the target named is T2, Inhibitor of nuclear factor kappa-B kinase subunit alpha (Homo sapiens) (UniProt O15111).
T2 sequence (whole entry): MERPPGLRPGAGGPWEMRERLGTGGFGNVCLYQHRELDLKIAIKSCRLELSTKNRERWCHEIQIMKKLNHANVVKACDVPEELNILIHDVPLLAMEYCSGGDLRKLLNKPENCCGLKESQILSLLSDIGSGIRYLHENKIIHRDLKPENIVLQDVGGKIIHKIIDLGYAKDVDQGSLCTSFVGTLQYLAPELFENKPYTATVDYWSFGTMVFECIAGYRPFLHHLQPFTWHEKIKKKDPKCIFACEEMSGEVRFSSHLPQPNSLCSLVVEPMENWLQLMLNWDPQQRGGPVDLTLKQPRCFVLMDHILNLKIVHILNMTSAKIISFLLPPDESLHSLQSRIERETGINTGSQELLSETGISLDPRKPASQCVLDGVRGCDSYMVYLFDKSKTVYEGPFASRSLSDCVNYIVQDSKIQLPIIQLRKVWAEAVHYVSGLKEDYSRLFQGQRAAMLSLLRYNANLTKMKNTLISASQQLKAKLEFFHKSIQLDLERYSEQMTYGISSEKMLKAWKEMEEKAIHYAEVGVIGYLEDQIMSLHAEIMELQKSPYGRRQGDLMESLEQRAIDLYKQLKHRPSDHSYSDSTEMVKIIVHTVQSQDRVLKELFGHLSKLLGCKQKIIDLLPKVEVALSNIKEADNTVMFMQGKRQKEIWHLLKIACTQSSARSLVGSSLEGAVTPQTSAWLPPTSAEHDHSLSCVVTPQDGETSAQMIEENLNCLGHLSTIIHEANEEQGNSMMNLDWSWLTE
The settings on record: at 1 µM.

Experiment [3] deals with T3, Tyrosine-protein kinase Mer (Homo sapiens) (UniProt Q12866).
T3 sequence (whole entry): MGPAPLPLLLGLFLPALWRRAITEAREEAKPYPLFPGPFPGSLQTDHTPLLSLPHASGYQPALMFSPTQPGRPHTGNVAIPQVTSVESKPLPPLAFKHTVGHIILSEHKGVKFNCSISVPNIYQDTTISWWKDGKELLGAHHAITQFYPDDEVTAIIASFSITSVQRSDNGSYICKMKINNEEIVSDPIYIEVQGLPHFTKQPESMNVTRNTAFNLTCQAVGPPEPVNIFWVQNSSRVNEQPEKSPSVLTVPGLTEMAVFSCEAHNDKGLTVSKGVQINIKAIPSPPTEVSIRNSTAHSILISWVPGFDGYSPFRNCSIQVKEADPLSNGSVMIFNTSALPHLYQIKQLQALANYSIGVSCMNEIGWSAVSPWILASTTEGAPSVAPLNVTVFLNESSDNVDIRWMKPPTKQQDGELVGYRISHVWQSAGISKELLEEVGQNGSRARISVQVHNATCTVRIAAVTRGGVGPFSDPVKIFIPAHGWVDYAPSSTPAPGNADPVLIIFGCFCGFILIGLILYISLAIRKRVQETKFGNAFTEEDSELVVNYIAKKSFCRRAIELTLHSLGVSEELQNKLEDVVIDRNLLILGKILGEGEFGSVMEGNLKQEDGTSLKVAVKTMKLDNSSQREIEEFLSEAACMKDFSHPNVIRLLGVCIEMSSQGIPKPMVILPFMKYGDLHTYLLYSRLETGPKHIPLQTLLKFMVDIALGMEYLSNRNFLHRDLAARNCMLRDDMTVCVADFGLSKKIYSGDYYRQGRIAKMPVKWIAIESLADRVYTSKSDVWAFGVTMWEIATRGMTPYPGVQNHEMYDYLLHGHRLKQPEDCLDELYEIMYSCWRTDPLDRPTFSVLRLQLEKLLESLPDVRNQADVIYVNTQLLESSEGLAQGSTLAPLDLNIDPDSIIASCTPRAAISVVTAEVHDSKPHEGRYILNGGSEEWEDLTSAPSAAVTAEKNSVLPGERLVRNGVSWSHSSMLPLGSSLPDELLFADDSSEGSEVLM
The settings on record: at 10 µM.

“And” between values parts separate entries of the source, which are not always exact repeats. Equal values may be shown once.

The inhibition is the change of the read-out against control, counted positive when it falls. In the case of `N#Cc1c(NC(=O)c2cccc3ccccc23)sc2c1CCCC2`, the inhibition was -2% and 0% in experiment [1]; 2% and -1% in experiment [2]; 78% in experiment [3].

Consider `CCS(=O)(=O)c1ccc(OC)c(Nc2ncc(-c3cccc(-c4ccccc4F)c3)o2)c1`, for which the inhibition in experiment [1] was 1% and 2%; in experiment [2] it was -3% and 14%; in experiment [3] it was 79%.

Regarding `NS(=O)(=O)c1cccc(-c2ccc3c(NC(=O)C4CC4)n[nH]c3c2)c1`, the inhibition was -3% and -1% in experiment [1]; 1% and 2% in experiment [2]; -7% in experiment [3].

As for `O=C1NC(=O)C(c2cccc(Cl)c2)=C1Nc1ccc(Cl)c(C(=O)O)c1`, the inhibition is -8% and -3% in experiment [1]; -6% and 2% in experiment [2]; 27% in experiment [3].

As for `COC(=O)Nc1nc2ccc(Sc3ccc(NC(=O)Nc4cc(C(F)(F)F)ccc4F)cc3)cc2[nH]1`, the inhibition in experiment [1] is -3%; in experiment [2], 3%; in experiment [3], 21%.

With `COc1cc(C=NNc2ncnc3c2cnn3Cc2ccccc2)ccc1O`, the inhibition in experiment [1] was -7%; in experiment [2], 4%; in experiment [3], 5%.

Turning to `CCn1c(-c2nonc2N)nc2c(C#CCN)ncc(OCCCN)c21`, the inhibition in experiment [1] is -3% and -6%; in experiment [2], 22%; in experiment [3], -4%.

On to `O=C(O[C@H]1CN[C@H](C#Cc2cc3ncnc(Nc4ccc(Cc5ccccc5)cc4)c3s2)C1)N1CCOCC1`, for which the inhibition in experiment [1] is 2% and 3%; in experiment [2] it was -7%; in experiment [3], 5%.

On to `COc1cc2ncn(-c3cc(O[C@@H](C)c4ccccc4Cl)c(C(N)=O)s3)c2cc1OC`, for which the inhibition in experiment [1] is 1%; in experiment [2], 0% and 1%; in experiment [3] it was 69%.

In the case of `O=S(=O)(CCOCc1ccc(-c2ccc3ncnc(Nc4ccc(OCc5cccc(F)c5)c(Cl)c4)c3c2)o1)c1ccccc1`, the inhibition was -2% and -4% in experiment [1]; 0% in experiment [2]; 5% in experiment [3].

Consider `N#Cc1c(NC(=O)c2ccc(F)cc2)sc2c1CCCC2`, for which the inhibition was -2% in experiment [1]; 0% and 2% in experiment [2]; 1% in experiment [3].

Turning to `COc1c(C(N)=O)cc(-c2ccc(Cl)cc2)cc1-c1ccc(S(N)(=O)=O)cc1`, the inhibition in experiment [1] was 1%; in experiment [2], 0% and -2%; in experiment [3], -6%.

As to `COc1ccc2ncn(-c3cc(O[C@H](C)c4ccccc4Cl)c(C(N)=O)s3)c2c1`, the inhibition in experiment [1] is 6% and 3%; in experiment [2], 1% and -8%; in experiment [3], 86%.

For `NC(=O)Cc1ccccc1Oc1nccc(-c2c(-c3ccc(F)cc3)ncn2C2CCNCC2)n1`, the inhibition in experiment [1] was -1%; in experiment [2] it was 2% and 3%; in experiment [3], 71%.

Consider `Fc1cccc(COc2ccc(Nc3ncnc4sc(-c5cccs5)cc34)cc2Cl)c1`, for which the inhibition in experiment [1] was -2% and -3%; in experiment [2] it was -2% and 0%; in experiment [3], -10%.

Consider `c1ccc(-c2n[nH]cc2-c2ccnc(-c3ccc(OCCn4ccnc4)cc3)c2)nc1`, for which the inhibition in experiment [1] was -2% and -1%; in experiment [2], 0% and -1%; in experiment [3] it was 0%.

For `Fc1ccc(-c2nc3n(c2-c2ccncc2)CCS3)cc1`, the inhibition is -2% and 0% in experiment [1]; 11% and -1% in experiment [2]; 73% in experiment [3].

With `COc1cc2c(cc1Nc1nc(Nc3cccc(F)c3C(N)=O)c3cc[nH]c3n1)N(C(=O)CN1CCN(C(C)C)CC1)CC2`, the inhibition in experiment [1] was -1% and -3%; in experiment [2], 4% and 5%; in experiment [3] it was -7%.

Take `COC(=O)Nc1nc2cc(Oc3ccc(NC(=O)Nc4cccc(Br)c4)cc3)ccc2[nH]1`: the inhibition was -3% and -1% in experiment [1]; 2% and 0% in experiment [2]; 4% in experiment [3].

`COc1ccc(-c2ccncc2)cc1C(N)=O`: the inhibition in experiment [1] was 3% and 4%; in experiment [2], -5% and -4%; in experiment [3] it was 3%.

As for `COc1ccc(-c2nn3ncccc3c2-c2ccnc(Nc3cccc(C(F)(F)F)c3)n2)cc1`, the inhibition is -1% and -3% in experiment [1]; 2% in experiment [2]; 6% in experiment [3].

As to `NC(=O)c1cccc(Nc2nccc(Nc3cccc(F)c3)n2)c1`, the inhibition in experiment [1] is -4% and -3%; in experiment [2] it was 4% and 2%; in experiment [3] it was 50%.

`COc1cc(/C=N/Nc2ncnc3[nH]ncc23)ccc1O`: the inhibition in experiment [1] was -10%; in experiment [2], 6%; in experiment [3], 6%.

Take `c1ccc(COc2ccc(Nc3ncnc4ccc(-c5ccco5)cc34)cc2)cc1`: the inhibition in experiment [1] is -1% and 4%; in experiment [2] it was 3% and 2%; in experiment [3], 99%.

`COc1cc(Nc2ncc3c(C)nc(-c4cccc(Oc5ccccc5)c4)n3n2)cc(OC)c1OC`: the inhibition is -4% and 0% in experiment [1]; 1% and 2% in experiment [2]; -6% in experiment [3].

`COc1ccc2ncn(-c3cc(O[C@H](C)c4ccccc4C(F)(F)F)c(C(N)=O)s3)c2c1`: the inhibition in experiment [1] is 0% and -2%; in experiment [2], 0% and -1%; in experiment [3], 3%.

In the case of `c1cnn2ncc(-c3ccnc(NCCCN4CCOCC4)n3)c2c1`, the inhibition in experiment [1] was -2%; in experiment [2], 2% and 1%; in experiment [3], 81%.

`[O-][S+]1CCN(Cc2ccc(-c3ccc4ncnc(Nc5ccc(OCc6ccccc6)c(Cl)c5)c4c3)o2)CC1`: the inhibition in experiment [1] is -2% and 0%; in experiment [2], 0% and -1%; in experiment [3] it was -5%.

For the molecule `CCCN1CCC(Oc2cc(Nc3nc(Nc4cccc(F)c4C(N)=O)c4cc[nH]c4n3)c(OC)cc2Cl)CC1`, the inhibition in experiment [1] is -5% and -1%; in experiment [2] it was -1% and 2%; in experiment [3], -6%.

As for `COC(=O)c1sc(-n2cnc3cc(OC)c(OC)cc32)cc1OCc1ccccc1C(F)(F)F`, the inhibition in experiment [1] is -6% and -3%; in experiment [2], -1% and 0%; in experiment [3], -1%.

On to `CCn1c(-c2nonc2N)nc2ccc(F)cc21`, for which the inhibition in experiment [1] is 5% and 1%; in experiment [2], 2%; in experiment [3], -4%.

Take `COc1cc(Nc2nccc(-c3cnn4ncccc34)n2)cc(OC)c1`: the inhibition in experiment [1] was -9%; in experiment [2], -4% and -2%; in experiment [3], 5%.

Source of the values: ChEMBL document CHEMBL2007661, “Compounds: GSK PKIS; Assays: UNC Frye lab” (2012).
